# Experimental data from ChEMBL document CHEMBL3272183, “Analgesics. 1. Synthesis and analgesic properties of N-sec-alkyl- and N-tert-alkylnormorphines” (J Med Chem, 1978).
# The source made the active and inactive calls. The rule behind the calls is not given here.
# Columns and labels:
# Mus musculus [1] = test: In vivo inhibition of morphine-induced straub-tail response in sc dosed Swiss-Webster mouse measured for 30 mins; format: functional; details: for ED50: 0.5 h
# Mus musculus [2] = species on record: Mus musculus; test: Analgesic activity in Swiss-Webster mouse measured for 20 mins by tail flick test; format: functional
# Mus musculus [3] = species on record: Mus musculus; test: Analgesic activity in Swiss-Webster mouse assessed as reduction of […]-induced writhing; format: functional
# Opioid receptor [4] = biological target: T1, Opioid receptor (Rattus norvegicus, UniProt P33533+P34975+P33535); test: Displacement of [3H]-naloxone from rat opioid receptor after 30 mins by liquid scintillation counting analysis in absence of NaCl; format: protein assay
# Opioid receptor [5] = biological target: T1, Opioid receptor; test: Displacement of [3H]-naloxone from rat opioid receptor after 30 mins by liquid scintillation counting analysis in presence of NaCl; format: protein assay
SMILES,inhibition (Mus musculus [1]),ED50 (Mus musculus [2]),ED50 (Mus musculus [3]),IC50 (Opioid receptor [4]),IC50 (Opioid receptor [5]),ED50 (Mus musculus [1])
CN1CC[C@]23c4c5ccc(O)c4O[C@H]2[C@@H](O)C=C[C@H]3[C@H]1C5 [MORPHINE],inactive,10.5 µmol/kg,1.5 µmol/kg,–,–,–
CCC(C)(C)N1CC[C@]23c4c5ccc(O)c4O[C@H]2[C@@H](O)C=C[C@H]3[C@H]1C5,–,> 580 µmol/kg,> 290 µmol/kg,1000 nM,1000 nM,–
CC[C@@H](C)N1CC[C@]23c4c5ccc(O)c4O[C@H]2[C@@H](O)C=C[C@H]3[C@H]1C5,–,–,–,60 nM,110 nM,–
Oc1ccc2c3c1O[C@H]1[C@@H](O)C=C[C@H]4[C@@H](C2)N(C2CCCCCC2)CC[C@@]341,–,> 136 µmol/kg,9.9 µmol/kg,19 nM,150 nM,60.8 µmol/kg
Oc1ccc2c3c1O[C@H]1[C@@H](O)C=C[C@H]4[C@@H](C2)N(CCc2ccccc2)CC[C@@]341,inactive,1.7 µmol/kg,0.27 µmol/kg,4.2 nM,133 nM,–
CCCC(C)N1CC[C@]23c4c5ccc(O)c4O[C@H]2[C@@H](O)C=C[C@H]3[C@H]1C5 (some centres not stated),–,> 439 µmol/kg,9 µmol/kg,37 nM,340 nM,80.8 µmol/kg
C=C[C@@H](C)N1CC[C@]23c4c5ccc(O)c4O[C@H]2[C@@H](O)C=C[C@H]3[C@H]1C5,–,–,–,27 nM,80 nM,–
Oc1ccc2c3c1O[C@H]1[C@@H](O)C=C[C@H]4[C@@H](C2)N(C2CCCC2)CC[C@@]341,–,124 µmol/kg,15.5 µmol/kg,34 nM,45 nM,15.5 µmol/kg
C=C[C@H](C)N1CC[C@]23c4c5ccc(O)c4O[C@H]2[C@@H](O)C=C[C@H]3[C@H]1C5,–,105 µmol/kg,–,16 nM,25 nM,–
Oc1ccc2c3c1O[C@H]1[C@@H](O)C=C[C@H]4[C@@H](C2)N(C2CCCCC2)CC[C@@]341,–,> 212 µmol/kg,15.7 µmol/kg,38 nM,92 nM,–
CCCN1CC[C@]23c4c5ccc(O)c4O[C@H]2[C@@H](O)C=C[C@H]3[C@H]1C5,–,51 µmol/kg,29 µmol/kg,14 nM,14 nM,0.6 µmol/kg
C=CCN1CC[C@]23c4c5ccc(O)c4O[C@H]2[C@@H](O)C=C[C@H]3[C@H]1C5 [NALORPHINE],–,–,3.2 µmol/kg,2 nM,6 nM,–
CC(Cc1ccccc1)N1CC[C@]23c4c5ccc(O)c4O[C@H]2[C@@H](O)C=C[C@H]3[C@H]1C5 (some centres not stated),inactive,4.3 µmol/kg,0.13 µmol/kg,3.4 nM,125 nM,–
CC(C)(Cc1ccccc1)N1CC[C@]23c4c5ccc(O)c4O[C@H]2[C@@H](O)C=C[C@H]3[C@H]1C5,–,> 310 µmol/kg,> 176 µmol/kg,1000 nM,1000 nM,–
CC[C@H](C)N1CC[C@]23c4c5ccc(O)c4O[C@H]2[C@@H](O)C=C[C@H]3[C@H]1C5,–,–,–,28 nM,62 nM,–
CCC(CC)N1CC[C@]23c4c5ccc(O)c4O[C@H]2[C@@H](O)C=C[C@H]3[C@H]1C5,–,–,–,78 nM,175 nM,–
C=CC(C)(C)N1CC[C@]23c4c5ccc(O)c4O[C@H]2[C@@H](O)C=C[C@H]3[C@H]1C5,–,> 295 µmol/kg,74 µmol/kg,> 1000 nM,> 1000 nM,–
Oc1ccc2c3c1O[C@H]1[C@@H](O)C=C[C@H]4[C@@H](C2)N(C2C=CCCC2)CC[C@@]341 (some centres not stated),–,79.7 µmol/kg,–,51 nM,130 nM,23.8 µmol/kg
